Laboratory results as given in patent publication US8501911B2, “Methods of reducing inflammation and mucus hypersecretion” (Biomarck Pharmaceuticals, Ltd, priority 1999, dated 2013).
Residues, ends and D or L forms follow the SMILES beside them. *: point of attachment. Myristoyl = CCCCCCCCCCCCCC(=O)*

How the values were obtained:
[1] = system: NHBE cells; experiment: Mucin secretion from NHBE cells exposed to kinase activators/reagents alone (ELISA); assay type: cell-based, human; settings: 15 min
Description: To determine the potential role of PKC and/or PKG in the mucin secretory process, NHBE cells were exposed to the following two specific protein kinase activators: the phorbol ester, phorbol 12-myristate 13-acetate (PMA), for activation of PKC, and the nonhydrolyzable cGMP analogue, 8-Br-cGMP, for activation of PKG.
NHBE Cell Culture—Expansion, cryopreservation, and culture of NHBE cells in the air/liquid interface were performed as described previously. See, Krunkosky et al. Briefly, NHBE cells (Clonetics, San Diego, Calif.) were seeded in vented T75 tissue culture flasks (500 cells/cm^2) and cultured until cells reached 75-80% confluence. Cells were then dissociated by trypsin/EDTA and frozen as passage-2. Air/liquid interface culture was initiated by seeding passage-2 cells (2×10^4 cells/cm^2) in […]® clear culture inserts (Costar, Cambridge, Mass.) that were thinly coated with rat tail collagen, type 1 (Collaborative Biomedical, Bedford, Mass.). Cells were cultured submerged in medium in a humidified 95% air, 5% CO2 environment for 5-7 days until nearly confluent. At that time, the air/liquid interface was created by removing the apical medium and feeding cells basalaterally. Medium was renewed daily thereafter. Cells were cultured for an additional 14 days to allow for full differentiation.
Measurement of Mucin Secretion by ELISA—Before collection of “base line” and “test” mucin samples, the accumulated mucus at the apical surface of the cells was removed by washing with phosphate-buffered saline, pH 7.2. To collect the base-line secretion, cells were incubated with medium alone, and secreted mucin in the apical medium was collected and reserved. Cells were rested for 24 h and then exposed to medium containing the selected stimulatory and/or inhibitory reagents (or appropriate controls), after which secreted mucin was collected and reserved as the test sample. Incubation times for the base line and the test were the same but varied depending on the test reagent utilized. Both base line and test secretions were analyzed by ELISA using an antibody capture method as known in the art. See, e.g., Harlow et al., Antibodies: A Laboratory Manual, pp. 570-573, Cold Spring Harbor Laboratory, Cold Spring Harbor, N.Y. (1988). The primary antibody for this assay was 17Q2 (Babco, Richmond, Calif.), a monoclonal antibody that reacts specifically with a carbohydrate epitope on human airway mucins. […] Wright et al., Am. J. Physiol. 271, L854-L861 (1996). Levels of mucin secretion were reported as percentage of the medium control.
Mucus secreted from the airway epithelial cells in vitro after stimulation by activators was assessed using an ELISA (antibody capture method) (E. Harlow, D. Lane. “Antibodies: A Laboratory Manual.” New York: Cold Spring Harbor Laboratory Press, 1988), wherein the collected mucus is bound directly to the ELISA plate. Mucus was detected using an antibody raised against monkey airway mucus (Lin et al. Am J Respir Cell Mol Biol 1:41, 1989).

[2] = system: U937 cells; experiment: Inhibition of lysozyme release from U937 cells; assay type: cell-based, human; settings: at 50 μM of test peptide; 100 nM PMA
Description: U937 is a monocyte-like human cell line which was purchased from American Type Culture Collection (ATCC) Rockville, Md. (catalog #CRL-15932). The cells were maintained in medium consisting of RPMI 1640 with glutamine supplemented with 10% heat inactivated fetal bovine serum (Gibco, Carlsbad, Calif.), 50 IU/mL, penicillin, 50 μg/mL streptomycin at 37° C. in an atmosphere containing 5% CO2. U937 cells were washed and resuspended at 2.5×10^6 cells/mL in phenol red free RPMI-1640 medium (Cellgro, Mediatech Inc.). Aliquots of cells in 15 mL plastic tubes were preincubated with indicated concentrations of test peptides (dissolved in PBS, pH 7.0) for 10 min at 37° C. The cells were then stimulated with 100 nM PMA for 1 hour. The cells were then centrifuged at 400×g for 5 min at 4° C. Lysozyme released from U937 cells was measured using spectrophotometric assay as described previously by Ralph et al., 1976. (Ralph P, Moore M A S, and Nilsson K. Lysozyme synthesis by established human and murine histocytic lymphoma cell lines. J. Exp. Med. 143:1528-33, 1976). Briefly. 100 μL of supernatants were placed in a 96-well microtiter plate and mixed with 100 μL of a Micrococcus lysodeikticus (Sigma-Aldrich) suspension (0.3 mg/mL in 0.1 M sodium phosphate buffer, pH 7.0), incubated for […] at room temperature and decrease in absorbance at 450 nm was measured. Chicken egg white lysozyme (EMD Biosciences) was used as a standard.

[3] = system: human neutrophils; experiment: Human neutrophil chemotactic migration assay; assay type: cell-based; settings: test peptide 50 μM; for Neutrophil Migration (% Inhibition), LTB4: LTB4 100 nM; for Neutrophil Migration (% Inhibition), LTB4 / Neutrophil Migration (% Inhibition), fMLP: 0 = inactive; for Neutrophil Migration (% Inhibition), PAF: PAF 100 nM; for Neutrophil Migration (% Inhibition), fMLP: fMLP 100 nM
Description: Human neutrophils were isolated from heparinized whole blood collected from healthy adult donors via cephalic venipuncture by a slightly modified method as described by Akasaki et al., 1999 (Akasaki T, Koga H, and Sumimoto H., Phosphoinositide 3-kinase-dependent and -independent activation of the small GTPase Rac2 in human neutrophils, J. Biol. Chem. 274:18055-18059, 1999). The blood was mixed with dextran (final concentration 1.4% dextran) and then allowed to settle for 60 minutes, after which time the leukocyte rich plasma was collected and layered onto 5 mL of Ficoll-Paque PLUS in 15 ml, conical tubes. The plasma was centrifuged at 1800 rpm for 20 minutes at room temperature. The residual erythrocytes were lysed utilizing a hypotonic saline and the remaining neutrophils were re-suspended in Hank's balanced salt solution containing 20 mM HEPES and 8.9 mM sodium bicarbonate without calcium or magnesium (HBSS), yielding neutrophils that were greater than 98% pure and greater than 99% viable.
Neutrophil migration assay was performed according to the method described by Frevert C W, Wong V A, Goodman R B, Goodwin R, and Martin T R., Rapid fluorescence-based measurement of neutrophil migration in vitro, J. Immunol. Methods, 213:41-52, 1998. Human neutrophils were labeled with the fluorescent dye calcein for 30 minutes at room temperature. Cells were then washed and resuspended in a migration buffer containing HBSS with 2% FCS. Cells were treated with buffer alone or with the indicated test peptide (50 μM) for 30 minutes at 37° C. Treated cells (1×10^4 cells) were then placed on the upper side of a ChemoTx® chemotaxis plate (Neuroprobe, Gaithersburg, Md.) membrane (2 μm pore size). Lower wells of the plate were filled with migration buffer alone or with buffer containing fMLP (100 nM), LTB4 (100 nM), or PAF (100 nM). Wells containing 1×10^4 labeled cells were used as standards to calculate migration percentage. Cells were allowed to migrate for 1 hour at 37° C. After incubation, cells on the top of the filter were washed away with PBS. Followed by this, 0.5 mM EDTA was added to the top of the filter for 5 min to detach adherent cells and the membrane was again washed. The plate was then centrifuged at 1000 rpm for 1 min. The filter was removed and the fluorescence was measured in the lower wells (485 nm excitation, 530 nm emission wavelength) using an fMax fluorescence plate reader (Molecular Devices, Sunnyvale, Calif.). Percent migration was determined by dividing the fluorescence of each well by the fluorescence of the standard wells containing 1×10^4 labeled cells. A lesser number of migrated neutrophils in the bottom compartment is indicative of the test peptide being an inhibitor of inflammation.

[4] = system: MARCKS-related mucus secretion; experiment: Inhibition of MARCKS-related mucus (mucin) secretion, Table 1; assay type: cell-based; settings: at 100 μM of test peptide
[5] = Solubility in 0.5 N saline; assay type: physicochemical; settings: in 0.5 N Saline at pH 6.5
[6] = system: HL-60 clone 15 cells; experiment: Inhibition of eosinophil peroxidase (EPO) release from HL-60 clone 15 cells; assay type: cell-based, human; settings: at 50 μM of test peptide; 100 nM PMA 2 hours
From the text: The human promyelocytic cell line (Fischkoff S A, Graded increase in probability of eosinophilic differentiation of HL-60 promyelocytic leukemia cells induced by culture under alkaline conditions. Leuk. Res., 12:679-686, 1988; Rosenberg H F, Ackerman S J, Tenen D G. Human eosinophil cationic protein: molecular cloning of a cytotoxin and helminthotoxin with ribonuclease activity. J. Exp. Med., 170:163-176, 1989), HL-60 clone 15, is eosinophil-like promyelocytic human cell line which was purchased from American Type Culture Collection (ATCC) Rockville, Md. (catalog #CRL-1964). The cells were maintained in medium consisting of RPMI 1640 with glutamine supplemented with 10% heat inactivated fetal bovine serum (Gibco, Carlsbad, Calif.), 50 IU/mL penicillin, 50 μg/mL streptomycin, and 25 mM HEPES buffer, pH 7.8 at 37° C. in an atmosphere containing 5% CO2. Final differentiation of an eosinophil-like phenotype was initiated by culturing the cells at 5×10^5 cells/mL in the above medium containing 0.5 mM butyric acid (Sigma-Aldrich) for 5 days as previously described by Tiffany H L, Li F, and Rosenberg H F, Hyperglycosylation of eosinophil ribonuclease in a promyelocytic leukemia cell line and in differentiated peripheral blood progenitor cells J. Leukoc. Biol. 58: 49-54, 1995; and by Tiffany H L, Alkhatib G, Combadiere C, Berger E A, and Murphy P M., CC Chemokine receptors are differentially regulated by IL-5 during maturation of eosinophilic HL-60 cells. J. Immunol. 160:1385-1392, 1998. The cells were washed and resuspended at 2.5×10^6 per mL in phenol free RPMI-1640 (Cellgro; Mediatech Inc.). Aliquots of cells in 15 mL plastic tubes were preincubated with indicated concentration of test peptide (dissolved in PBS, pH 7.0) for 10 minutes followed by treatment of the cells with 100 nM PMA for 2 hours. The reaction was terminated by placing the tubes on ice and centrifugation of cells at 400 g for 5 min at 4° C. The eosinophil peroxidase (EPO) activity released by HL-60 clone 15 cells was assayed using TMB according to a previously established technique Paige et al (see above) and by Lacy P, Mahmudi-Azer S, Bablitz B, Hagen S C, Velazquez J R, Man S F, Moqbel R. Rapid mobilization of intracellularly stored RANTES in response to interferon-gamma in human eosinophils. Blood 94:23-32, 1999. Briefly, add 50 μL aliquots of the supernatant to 96-well microtiter plate followed by addition of 100 μL of the tetramethylbenzidine (TMB) substrate solution and incubate at room temperature for 15 minutes. The reaction was terminated by addition of 50 μL of 1.0 M sulfuric acid and absorbance was read at 450 nm in a spectrophotometric microplate reader (Molecular Devices, Sunnyvale, Calif.). The amount of secreted EPO was expressed as percentage of total content using the amount obtained in the same number of triton X-100-lysed cells.
Because standard EPO from HL-60 clone 15 cells was not available to use for quantification, we measured both released and intracellular (from lysed cells) levels of EPO, and expressed the released EPO as a percentage of total (intracellular and released) for each. To measure intracellular EPO in HL-60 clone 15 cells, appropriate aliquots of 0.1% triton X-100-lysed cells were taken for quantification of intracellular EPO as described above. All data are expressed as percentage of control to minimize variability between cultures.

Compound | Mucin secretion as percent of control ([1]; reagent 100 nM alone) | Mucin secretion as percent of control ([1]; reagent 1 μM alone) | Mucin secretion as percent of control ([1]; reagent 1 μM together with PMA 100 nM) | % Inhibition Lysozyme [2] | Neutrophil Migration (% Inhibition), LTB4 [3] | Neutrophil Migration (% Inhibition), PAF [3] | Neutrophil Migration (% Inhibition), fMLP [3] | % Inhibition Mucin [4] | solubility [5] | % Inhibition EPO [6]
CCCCCCCCCCCCCC(=O)O[C@@H]1[C@@H](C)[C@@]2(O)[C@@H](C=C(CO)C[C@@]3(O)C(=O)C(C)=C[C@@H]23)[C@@H]2C(C)(C)[C@]12OC(C)=O [4-alpha-PMA] | 104% | – | – | – | – | – | – | – | – | –
Nc1nc2c(nc(Br)n2[C@@H]2O[C@@H]3COP(O)(=S)O[C@H]3[C@H]2O)c(=O)[nH]1 (some centres unmarked) [Rp-8-Br-cGMP] | – | 100% | 123% | – | – | – | – | – | – | –
CCCCCCCCCCCCCC(=O)NCC(=O)N[C@@H](C)C(=O)N[C@@H](CCC(N)=O)C(=O)N[C@@H](Cc1ccccc1)C(=O)N[C@@H](CO)C(=O)N[C@@H](CCCCN)C(=O)N[C@H](C(=O)N[C@@H](C)C(=O)N[C@@H](C)C(=O)N[C@@H](CCCCN)C(=O)NCC(=O)N[C@@H](CCC(=O)O)C(=O)N[C@@H](C)C(=O)N[C@@H](C)C(=O)N[C@@H](C)C(=O)N[C@@H](CCC(=O)O)C(=O)N[C@@H](CCCNC(=N)N)C(=O)N1CCC[C@H]1C(=O)NCC(=O)N[C@@H](CCC(=O)O)C(=O)O)[C@@H](C)O [SEQ ID NO: 5] (Myristoyl-GAQFSKTAAKGEAAAERPGE-OH; C-terminus assumed) | – | – | – | 99% | 76.8% | 88.4% | 69.1% | 77% | < 5000 µg/mL | 33.6%
CCCCCCCCCCCCCC(=O)NCC(=O)N[C@@H](C)C(=O)N[C@@H](CCC(N)=O)C(=O)N[C@@H](Cc1ccccc1)C(=O)N[C@@H](CO)C(=O)N[C@@H](CCCCN)C(=O)N[C@H](C(=O)N[C@@H](C)C(=O)N[C@@H](C)C(=O)N[C@@H](CCCCN)C(=O)NCC(=O)N[C@@H](CCC(=O)O)C(=O)N[C@@H](C)C(=O)N[C@@H](C)C(=O)N[C@@H](C)C(=O)N[C@@H](CCC(=O)O)C(=O)O)[C@@H](C)O [SEQ ID NO: 9, N-myristoyl-GAQFSKTAAKGEAAAE] (Myristoyl-GAQFSKTAAKGEAAAE-OH; C-terminus assumed) | – | – | – | 99% | 90.3% | 72.7% | 84.8% | 68% | > 2000 µg/mL | 30.3%
